Results as given in PMC7587356, “High-Throughput Screening for Inhibitors of the SARS-CoV-2 Protease Using a FRET-Biosensor” (Molecules, 2020).
Structures can show the parent of a compound that is named as a salt. Where two headings read alike, the source gives them in different places.

Target: SARS-CoV-2 3CLpro (Severe acute respiratory syndrome coronavirus 2, UniProt P0DTD1)
Assay: biochemical
Format: biochemical
Set-up: Replicate_1 / Replicate_2 / mean / mean (LOPAC_screen_w_protease): unit not given here
Conditions: for inhibition at 5 µM: 4 h
[1] = read-out: Replicate_1 (LOPAC screen with protease)
[2] = read-out: Replicate_2 (LOPAC screen with protease)
[3] = read-out: mean (LOPAC screen with protease)
[4] = sheet LOPAC_screen_w_protease, LOPAC1280 at 5 µM, mean of two replicates, read-out: mean
[5] = sheet LOPAC_screen_w_protease, LOPAC1280 at 5 µM, replicate 1, read-out: Replicate_1
[6] = sheet LOPAC_screen_w_protease, LOPAC1280 at 5 µM, replicate 2, read-out: Replicate_2
[7] = sheet LOPAC_screen_w_protease, LOPAC1280 primary screen with protease, 5 µM compound, mean of the two replicates
[8] = sheet LOPAC_screen_w_protease, LOPAC1280 primary screen with protease, 5 µM compound, replicate 1
[9] = sheet LOPAC_screen_w_protease, LOPAC1280 primary screen with protease, 5 µM compound, replicate 2
[10] = sheet LOPAC_screen_w_protease, LOPAC1280 primary screen with protease, 5 µM compound, mean of the two replicates, read-out: mean
[11] = sheet LOPAC_screen_w_protease, LOPAC1280 primary screen with protease, 5 µM compound, replicate 1, read-out: Replicate_1
[12] = sheet LOPAC_screen_w_protease, LOPAC1280 primary screen with protease, 5 µM compound, replicate 2, read-out: Replicate_2
[13] = sheet LOPAC_screen_w_protease, primary screen with protease, mean of two replicates
[14] = sheet LOPAC_screen_w_protease, primary screen with protease, replicate 1
[15] = sheet LOPAC_screen_w_protease, primary screen with protease, replicate 2
[16] = sheet LOPAC_screen_w_protease, primary screen with protease, 5 µM, mean of two replicates, read-out: mean
[17] = sheet LOPAC_screen_w_protease, primary screen with protease, 5 µM, replicate 1, read-out: Replicate_1
[18] = sheet LOPAC_screen_w_protease, primary screen with protease, 5 µM, replicate 2, read-out: Replicate_2
[19] = sheet LOPAC_screen_w_protease, primary screen with protease, compound at 5 µM, mean of two replicates, read-out: mean
[20] = sheet LOPAC_screen_w_protease, primary screen with protease, compound at 5 µM, replicate 1, read-out: Replicate_1
[21] = sheet LOPAC_screen_w_protease, primary screen with protease, compound at 5 µM, replicate 2, read-out: Replicate_2
[22] = LOPAC1280 primary screen with protease, 5 µM compound, replicate 1, read-out: Replicate_1 (LOPAC_screen_w_protease)
[23] = LOPAC1280 primary screen with protease, 5 µM compound, replicate 2, read-out: Replicate_2 (LOPAC_screen_w_protease)
[24] = LOPAC1280 primary screen with protease, 5 µM compound, mean of the two replicates
[25] = sheet LOPAC_screen_w_protease, primary screen of LOPAC1280 at 5 µM with protease, mean of the two replicates
[26] = sheet LOPAC_screen_w_protease, primary screen of LOPAC1280 at 5 µM with protease, replicate 1
[27] = sheet LOPAC_screen_w_protease, primary screen of LOPAC1280 at 5 µM with protease, replicate 2
[28] = sheet LOPAC_screen_w_protease, primary screen with protease, compound at 5 µM, mean of two replicates
[29] = sheet LOPAC_screen_w_protease, primary screen with protease, compound at 5 µM, replicate 1
[30] = sheet LOPAC_screen_w_protease, primary screen with protease, compound at 5 µM, replicate 2
[31] = LOPAC1280 primary screen with protease, 5 µM compound, replicate 1
[32] = LOPAC1280 primary screen with protease, 5 µM compound, replicate 2

SMILES: O=c1c2ccccc2[se]n1-c1ccccc1 [Ebselen, reference compound]
- inhibition at 5 µM [1]: 105%
- inhibition at 5 µM [2]: 102%
- inhibition at 5 µM [3]: 103%

SMILES: Cc1cccc(C)c1N=C1NCCCS1 [Xylazine hydrochloride]
- inhibition at 5 µM (read-out: Replicate_1): 0.366%
- inhibition at 5 µM (read-out: Replicate_2): 2.25%
- inhibition at 5 µM (read-out: mean): 1.31%

SMILES: C=CCc1ccccc1OCC(O)CNC1(C)CCC(C(C)(C)NC(=O)CBr)CC1 (stereo not drawn) [Bromoacetyl alprenolol menthane]
- inhibition at 5 µM [4]: 1.3%
- inhibition at 5 µM [5]: 0.0303%
- inhibition at 5 µM [6]: 2.58%

SMILES: Oc1ccc(O)cc1 [Hydroquinone]
- inhibition at 5 µM (read-out: Replicate_1): 3.41%
- inhibition at 5 µM (read-out: Replicate_2): -0.951%
- inhibition at 5 µM (read-out: mean): 1.23%

SMILES: Cn1c(=O)c2[nH]c(-c3ccccc3)nc2n(C)c1=O [1,3-Dimethyl-8-phenylxanthine]
- mean [7]: 6.36
- Replicate_1 [8]: 5.626
- Replicate_2 [9]: 7.0953

SMILES: CNCCC(Oc1ccccc1OC)c1ccccc1 (stereo not drawn) [Nisoxetine hydrochloride]
- inhibition at 5 µM [10]: 4.4%
- inhibition at 5 µM [11]: 3.53%
- inhibition at 5 µM [12]: 5.27%

SMILES: Nc1ccc2c3c(cccc13)C(=O)NC2=O [4-Amino-1,8-naphthalimide]
- mean (LOPAC screen with protease) (sheet LOPAC_screen_w_protease, primary screen at 5 µM, mean of two replicates): 6.555
- Replicate_1 (LOPAC screen with protease) (sheet LOPAC_screen_w_protease, primary screen at 5 µM, replicate 1): 8.124
- Replicate_2 (LOPAC screen with protease) (sheet LOPAC_screen_w_protease, primary screen at 5 µM, replicate 2): 4.986

SMILES: COc1ccc2c(c1)c(CC(=O)O)c(C)n2C(=O)c1ccccc1
- mean [13]: 2.541
- Replicate_1 [14]: 2.008
- Replicate_2 [15]: 3.073

SMILES: COCc1nc2c([nH]1)c(=O)n(C)c(=O)n2CC(C)C
- mean [7]: 5.36
- Replicate_1 [8]: 6.304
- Replicate_2 [9]: 4.4152

SMILES: O=C(O)/C=C\C(=O)O.c1cnc(N2CCN(Cc3ccc4c(c3)OCO4)CC2)nc1 [Piribedil maleate]
- mean (sheet LOPAC_screen_w_protease, LOPAC1280 primary screen at 5 µM, with protease, mean of the two replicates): 0.4342
- Replicate_1 (sheet LOPAC_screen_w_protease, LOPAC1280 primary screen at 5 µM, with protease, replicate 1): -0.05723
- Replicate_2 (sheet LOPAC_screen_w_protease, LOPAC1280 primary screen at 5 µM, with protease, replicate 2): 0.9256

SMILES: COc1ccccc1N1CCN(CCCNc2cc(=O)n(C)c(=O)n2C)CC1 [Urapidil hydrochloride]
- inhibition at 5 µM [16]: -0.372%
- inhibition at 5 µM [17]: 0.127%
- inhibition at 5 µM [18]: -0.871%

SMILES: NC/C=C\C(=O)O [cis-4-Aminocrotonic acid]
- mean [13]: 2.546
- Replicate_1 [14]: 3.312
- Replicate_2 [15]: 1.781

SMILES: CC(=O)CCCCn1c(=O)c2c(ncn2C)n(C)c1=O [Pentoxifylline]
- inhibition at 5 µM [19]: 2.98%
- inhibition at 5 µM [20]: 2.78%
- inhibition at 5 µM [21]: 3.18%

SMILES: OC(CN1CCC(Cc2ccc(F)cc2)CC1)c1ccc(Cl)cc1 (stereo not drawn) [Eliprodil]
- inhibition at 5 µM [19]: 2.62%
- inhibition at 5 µM [20]: 2.73%
- inhibition at 5 µM [21]: 2.52%

SMILES: CCCNC(C)C(=O)Nc1ccccc1C (stereo not drawn) [Prilocaine hydrochloride]
- inhibition at 5 µM [16]: 0.116%
- inhibition at 5 µM [17]: 0.518%
- inhibition at 5 µM [18]: -0.285%

SMILES: Cc1cccc(/C=C/c2ccccc2)n1 [SIB 1893]
- mean (sheet LOPAC_screen_w_protease, primary screen with protease, 5 µM, mean of two replicates): 0.4194
- Replicate_1 (sheet LOPAC_screen_w_protease, primary screen with protease, 5 µM, replicate 1): 2.242
- Replicate_2 (sheet LOPAC_screen_w_protease, primary screen with protease, 5 µM, replicate 2): -1.403

SMILES: C[N+]1(C)[C@@H]2CC[C@H]1C[C@@H](OC(=O)C(CO)c1ccccc1)C2 (stereo partly drawn) [Atropine methyl bromide]
- inhibition at 5 µM [22]: 2.3%
- inhibition at 5 µM [23]: 1.25%
- mean (LOPAC_screen_w_protease) [24]: 1.779

SMILES: O=C(OCCN1CCOCC1)C1(c2ccccc2)CCCCC1 [PRE-084]
- mean [25]: 3.777
- Replicate_1 [26]: 2.6752
- Replicate_2 [27]: 4.879

SMILES: N#CC(=C(/N)Sc1ccccc1N)/C(C#N)=C(/N)Sc1ccccc1N [U0126]
- mean [28]: 2.655
- Replicate_1 [29]: 2.394
- Replicate_2 [30]: 2.916

SMILES: Oc1cccc2c(O)nccc12 [1,5-Isoquinolinediol]
- mean (LOPAC_screen_w_protease) [24]: 2.037
- Replicate_1 (LOPAC_screen_w_protease) [31]: 1.193
- Replicate_2 (LOPAC_screen_w_protease) [32]: 2.882

SMILES: O=C1N(c2ccccc2)c2ccccc2C1(Cc1ccncc1)Cc1ccncc1 [Linopirdine]
- inhibition at 5 µM [10]: 4.8%
- inhibition at 5 µM [11]: 4.31%
- inhibition at 5 µM [12]: 5.29%

SMILES: COc1cc(C(O)C(=O)O)ccc1O (racemic) [(±)-Vanillylmandelic acid]
- mean (sheet LOPAC_screen_w_protease, LOPAC1280 at 5 µM, mean of two replicates): 1.1
- Replicate_1 (sheet LOPAC_screen_w_protease, LOPAC1280 at 5 µM, replicate 1): 2.648
- Replicate_2 (sheet LOPAC_screen_w_protease, LOPAC1280 at 5 µM, replicate 2): -0.449

SMILES: N#CC(=Cc1c[nH]c2ccccc12)C(=O)c1ccc(O)c(O)c1 [Tyrphostin AG 808]
- mean (LOPAC_screen_w_protease) [24]: 1.999
- Replicate_1 (LOPAC_screen_w_protease) [31]: 2.979
- Replicate_2 (LOPAC_screen_w_protease) [32]: 1.0189

SMILES: CCOC(=O)C1=C[C@]2(CC)CCCN3CCc4c(n1c1ccccc41)[C@@H]32 [Vinpocetine]
- inhibition at 5 µM [4]: 0.949%
- inhibition at 5 µM [5]: 0.618%
- inhibition at 5 µM [6]: 1.28%

SMILES: CC(C)[N+](C)(CCOC(=O)C1c2ccccc2Oc2ccccc21)C(C)C [Propantheline bromide]
- inhibition at 5 µM [16]: 0.204%
- inhibition at 5 µM [17]: 0.838%
- inhibition at 5 µM [18]: -0.43%

SMILES: CC[C@@H]1Cc2cc(O)ccc2C2=C1c1ccc(O)cc1C[C@H]2CC
- mean [25]: 3.66
- Replicate_1 [26]: 4.43
- Replicate_2 [27]: 2.89

SMILES: CN1CCc2ccccc2Cc2[nH]c3ccccc3c2CC1 [LE 300]
- Replicate_1: 0.4919
- Replicate_2: 1.5197
- mean: 1.0058

SMILES: CC[C@@H](CO)NC(=O)[C@@H]1C=C2c3cccc4[nH]cc(c34)C[C@H]2N(C)C1 [Methylergonovine maleate]
- inhibition at 5 µM (read-out: Replicate_1): 1.27%
- inhibition at 5 µM (read-out: Replicate_2): 0.625%
- inhibition at 5 µM (read-out: mean): 0.949%

SMILES: CCCCS(=N)(=O)CC[C@H](N)C(=O)O (stereo partly drawn) [L-Buthionine-sulfoximine]
- inhibition at 5 µM [22]: 1.94%
- inhibition at 5 µM [23]: 2.27%
- mean (LOPAC_screen_w_protease) [24]: 2.107

SMILES: COc1cc([C@@H]2c3cc4c(cc3[C@H](O)[C@H]3COC(=O)[C@H]23)OCO4)cc(OC)c1OC [Podophyllotoxin]
- inhibition at 5 µM (read-out: Replicate_1): 3.42%
- inhibition at 5 µM (read-out: Replicate_2): 4.17%
- inhibition at 5 µM (read-out: mean): 3.8%

SMILES: CNc1ccc2oc(C[C@H]3O[C@@]4(CC[C@H]3C)O[C@H]([C@H](C)C(=O)c3ccc[nH]3)[C@H](C)C[C@H]4C)nc2c1C(=O)O [Calcimycin]
- inhibition at 5 µM [19]: 3.09%
- inhibition at 5 µM [20]: 2.08%
- inhibition at 5 µM [21]: 4.1%

SMILES: Cc1cc(O)c2c(c1)C(=O)c1cc(O)cc(O)c1C2=O [Emodin]
- inhibition at 5 µM [1]: 10.9%
- inhibition at 5 µM [2]: 5.72%
- inhibition at 5 µM [3]: 8.32%

SMILES: CCSC(=N)Nc1ccc(C(F)(F)F)cc1.Cl [TFPI hydrochloride]
- mean (LOPAC_screen_w_protease) (LOPAC1280 primary screen with protease, 5 µM compound, mean of two replicates): 1.706
- Replicate_1 (LOPAC_screen_w_protease) [31]: 2.498
- Replicate_2 (LOPAC_screen_w_protease) [32]: 0.9137

SMILES: NC(=O)c1cccc(N)c1 [3-aminobenzamide]
- inhibition at 5 µM [4]: 1.28%
- inhibition at 5 µM [5]: 1.05%
- inhibition at 5 µM [6]: 1.51%

SMILES: N=C(N)NC(=O)c1nc(Cl)c(N2CCCCCC2)nc1N [5-(N,N-hexamethylene)amiloride]
- mean [13]: 2.452
- Replicate_1 [14]: 2.2643
- Replicate_2 [15]: 2.64

SMILES: CN1CCc2cccc(Cl)c2CC1 [SKF 86466]
- inhibition at 5 µM (sheet LOPAC_screen_w_protease, LOPAC1280 primary screen at 5 µM, with protease, mean of the two replicates, read-out: mean): 0.452%
- inhibition at 5 µM (sheet LOPAC_screen_w_protease, LOPAC1280 primary screen at 5 µM, with protease, replicate 1, read-out: Replicate_1): 0.136%
- inhibition at 5 µM (sheet LOPAC_screen_w_protease, LOPAC1280 primary screen at 5 µM, with protease, replicate 2, read-out: Replicate_2): 0.768%

SMILES: CNc1ncnc2c1ncn2[C@@H]1O[C@H](CO)[C@@H](O)[C@H]1O [N6-Methyladenosine]
- mean [28]: 2.9788
- Replicate_1 [29]: 2.994
- Replicate_2 [30]: 2.964
